The values that follow come from patent publication US20130281313A1, “PROGNOSTIC AND/OR PREDICTIVE BIOMARKERS AND BIOLOGICAL APPLICATIONS THEREOF” (INSTITUT GUSTAVE ROUSSY, priority 2010, published 2013).

Assay [1] has as its system A549 cells. As to the kind of experiment: Targeted metabolomic studies (ATP, ADP, AMP, GSH; RRLC-MS). The assay is classed as cell-based, human. As to conditions: A549 cells, 24 h. The protocol:
A549 cells were left untreated or treated with 25 μM CDDP alone or in combination with 5 mM PN, for 24 h. Thereafter, both attached (living) and detached (dying/dead) cells were harvested, washed once in cold PBS and pelleted (800 G for 5 min). Pellets were resuspended in 200 μL deionized water, briefly vortexed and sonicated. 800 μl ice-cold methanol was added, and samples were kept in ice for 15 min, vortexed and centrifuged at 13,000 G for 10 min at 4° C. Supernatants were dried in a SpeedVac drier (Thermo Scientific-Pierce) and stored at −80° C. until analysis. Pellets were resuspended in 150 μL 98:2 water/acetonitrile immediately before analytical determinations (see below).
ATP, ADP, AMP and GSH were quantified on a Rapid Resolution Liquid Chromatography (RRLC) 1200SL system coupled to a 6410 Triple Quadripole (QQQ) mass spectrometer (both from Agilent Technologies). For nucleotides, RRLC was performed on 150×2.1 mm, 3.5 μM Eclipse Plus columns (Agilent Technologies) with water containing 4 mM dimethylhexylamine (DMHA) plus 0.01% (v/v) acetic acid in channel A and acetonitrile in channel B, in gradient mode at a flow rate of 0.2 mL/min: t=0 min 2% B; t=9 min 32% B; t=10 min 95% B; T=12 min 95% B, re-equilibration time=6 min. Mass spectrometry was performed in positive electrospray ionization mode at +4 kV on the QQQ system operating in MRM mode. MRM transitions were optimized with direct infusions of ATP, ADP, and AMP standards with direct infusion, and four transitions were recorded for each compounds. Parent ions were adduct ions of DMHA and also proton adducts:
For GSH, RRLC was performed on a 150×2.1 mm, 3.5 μM Stable Bond AQ column (Agilent Technologies) with water containing 0.2% (v/v) acetic acid in channel A and methanol in channel B, in gradient mode at a flow rate of 0.3 mL/min: t=0 min 2% B; t=8 min 95% B; t=9 min 95% B; re-equilibration time=6 min. Mass spectrometry was performed as above. MRM transitions were optimized with direct infusion of GSH standards.
Data collection and analysis were performed with the MassHunter software (Agilent Technologies).

For assay [2], the system named is murine Lewis lung carcinoma (LLC) cells in immunocompetent C57BL/6 mice. As to the kind of experiment: Tumor graft model: LLC cells in C57BL/6 mice. The assay is classed as in vivo, mouse. As to conditions: intraperitoneal CDDP with systemic injections of PN. The protocol: C57BL/6 (H-2b) and Swiss Nude mice were obtained from Janvier (Le Genest St. Isle, France) and Charles River, respectively. Animals were maintained in pathogen-free conditions, and all experiments were carried out (upon approval by the local ethical committee) according to the Federation of European Laboratory Animal Science Association (FELASA) guidelines. Mice were used between 6 and 12 weeks of age. During the experiments, animals were subjected to artificial light cycle (12 h lights on-12 h lights off) and allowed food and drink ad libitum.
5×10^5 LLC and A549 cells were subcutaneously xenografted (in 100 μL sterile PBS) in 25-30 immunocompetent (C57BL/6) and immunodeficient (Swiss Nude) mice, respectively. When the surface of tumors reached 25-40 mm^2, n=4-6 mice were assigned to either of 4 different treatment groups: group 1=100 μL intraperitoneal PBS; group 2=5 mg/kg intraperitoneal CDDP in 100 μL PBS; group 3=240 mg/Kg intraperitoneal Orlistat® in 40 μL PBS; group 4=5 mg/kg intraperitoneal CDDP in 100 μL PBS+intraperitoneal Orlistat® in 40 μL PBS. Treatments were administered three times a week (day 1, 3 and 5; day 8=day 1). Tumor size was monitored on the day of treatment by means of a standard calliper and tumor volume was extrapolated as previously described {Streit, 1999}. […] Statistical significance was evaluated by two-way ANOVA.

Take `N.N.[Cl][Pt][Cl]` [CDDP, cis-diammineplatinum(II) dichloride]: in assay [1] (25 μM CDDP), the “intracellular levels of GSH” value was “a decrease in the intracellular levels of GSH”.

On to `Cc1ncc(CO)c(CO)c1O` [PN, pyridoxine], for which the “antitumor effects of CDDP-based chemotherapy (tumor growth)” value in assay [2] was “augmented the antitumor effects of CDDP-based chemotherapy in vivo”. In addition, in assay [1] (25 μM CDDP and 5 mM PN in combination, not present with either compound alone), the “Atkinson's energy charge” value is given as “exhibited a bioenergetic defect”. Also, the “CDDP-induced decrease in GSH and redox-relevant metabolites (carnitine, acetylcarnitine, propionylcarnitine)” value in assay [1] (25 μM CDDP with 5 mM PN) is given as “largely exacerbated by PN”.
